This is an account of results in US20030191144A1, “Compounds, compositions and methods for modulating beta-amyloid production” (Active Pass Pharmaceuticals, Inc., priority 2001, published 2003).

Assay [1] deals with Aβ42 production and/or release from SM-4 cells. The experiment in a line: Aβ42 ELISA of culture media from SM-4 cells. The following applies: 16 hrs. The format is cell-based. How it is done: Cell Lines and Pharmacological Treatments. 293 EBNA cells (InVitrogen, Carlsbad, Calif.) stably transfected with Swedish mutant β-Amyloid Precursor Protein -695 (SM4 cells) were routinely maintained in DMEM supplemented with sodium pyruvate (1 mM) and 10% fetal bovine serum. Cells were seeded into poly-D-Lysine (SIGMA) coated 6-well plates at a density of 5-7×10^5 cells per well. Subsequently, the cells were rinsed in 1 ml of PBS and treated with 10-500 μM of pirinixic acid in serum-free/phenol red-free DMEM for 16 hours.
(§1) Aβ Detection and Standardization. After the pharmacological treatment, the exposure media was collected and supplemented with 10% sample treatment buffer (40 mM sodium phosphate (pH 7.4), 40 mM triethanolamine, 0.1% Triton X-100, 200 mM NaCl, 2 mM EGTA, 0.1% Sodium azide), and assayed for either Aβ40 or Aβ42 by a calorimetric ELISA as per the manufacturer's protocol (Biosource International Inc, California). The cells were lysed in 0.1% Triton X-100 in PBS supplemented with 5 μM propridium iodide (Molecular Probes, Eugene, Oreg.) and incubated at 37° C. for 30 minutes prior to measuring fluorescence. Aβ40 and Aβ42 were standardized against propridium iodide fluorescence as a measure of total cell number. […]
as §1, with “After” for “Aβ Detection and Standardization. After”
After the pharmacological treatment, the exposure media was collected and supplemented with 10% sample treatment buffer (40 mM sodium phosphate (pH 7.4), 40 mM triethanolamine, 0.1% Triton X-100, 200 mM NaCl, 2 mM EGTA, 0.1% Sodium azide), and assayed for either Aβ40 or Aβ42 by a colorimetric ELISA as per the manufacturer's protocol (Biosource International Inc, California). The cells were lysed in 0.1% Triton X-100 in PBS supplemented with 5 μM propridium iodide (Molecular Probes, Eugene, Oreg.) and incubated at 37° C. for 30 minutes prior to measuring fluorescence. Aβ40 and Aβ42 were standardized against propridium iodide fluorescence as a measure of total cell number.

Assay [2] relates to Aβ42 from human neuroblastoma cells (hDAT; SK-N-MC). As to the kind of experiment: Aβ42 ELISA, human neuroblastoma cells transiently transfected with APPsw. Format: cell-based. As to conditions: 200 μM, 24 hours, p<0.001, n=11. How it is done: Human neuroblastoma cells (hDAT; SK-N-MC stably overexpression human dopamine transporter) were routinely maintained in DMEM supplemented with sodium pyruvate (1 mM) and 10% fetal bovine serum. […] Subsequently, 48 hours post-transfection the cells were rinsed with PBS and treated with vehicle (0.1% DMSO) or 100-200 μM pirinixic acid in serum free/phenol free DMEM for 24 hours. After the pharmacological treatment, the exposure media was collected and supplemented with 10% sample treatment buffer (40 mM sodium phosphate (pH 7.4), 40 mM triethanolamine, 0.1% Triton X-100, 200 mM NaCl, 2 mM EGTA, 0.1% Sodium azide), and assayed for either Aβ40 or AP42 by a calorimetric ELISA as per the manufacturer's protocol (Biosource International Inc, California). The cells were lysed in 0.1% Triton X-100 in PBS supplemented with 5 μM Propridium Iodide (Molecular probes, Eugene, Oreg.) and incubated at 37° C. for 30 minutes prior to measuring fluorescence. Secreted Aβ40 and Aβ42 levels were standardized against propridium iodide fluorescence as a measure of total cell number. Data are expressed as a percent of control and represent the mean±SD with n=11 and statistical significance determined by ANOVA with a Tukey's post hoc test at ***p<0.001.

In the case of `Cc1cccc(Nc2cc(Cl)nc(SCC(=O)O)n2)c1C` [pirinixic acid], the “decrease in Aβ42” value was 15% in assay [1] (50 μM, p<0.001); 60% in assay [1] (500 μM); 40% in assay [2].
